Measurements taken from patent US12037306B2, “Methods of treating neurofibromatosis type 1 with N-((R))-2,3-dihydroxypropoxy)-3,4-difluoro-2-(2-fluoro-4-iodophenylamino)-benzamide” (Warner-Lambert Company LLC, priority 2021, dated 2024).

Assay: Form IV stability by XRPD comparison to a reference standard after storage
Type: physicochemical
Settings: stored at 25° C. and 65% relative humidity
Method: In some aspects, the XRPD pattern is generated using a PANALYTICAL® X'Pert Pro diffractometer using Ni-filtered Cu Kα (45 kV/40 mA) radiation and a step size of 0.03° 2θ with a X'CELERATOR® Real Time Multi-Strip detector, configured (a) on the incidental beam side as follows: variable divergence slits (10 mm irradiated length), 0.04 rad Soller slits, fixed anti-scatter slit (0.50°), and 10 mm beam mask, and (b) on the diffracted beam side as follows: variable anti-scatter slit (10 mm observed length) and 0.04 rad Soller slit or a BRUKER® D8® ADVANCE™ system using Cu Kα (40 kV/40 mA) radiation and a step size of 0.03° 2θ with a LYNXEYE™ detector, configured (a) on the incidental beam side as follows: Göebel mirror, mirror exit slit (0.2 mm), 2.5° Soller slit, beam knife, and (b) on the diffracted beam side as follows: anti-scatter slit (8 mm) and 2.5° Soller slit, wherein samples are mounted flat on zero-background Si wafers. In some aspects, the DSC pattern is generated using a TA Instruments Q100 or Q2000 differential scanning calorimeter at a rate of temperature increase of about 15° C./min.
Stability of Form IV material was determined by comparing the XRPD spectrum of a batch to a reference standard XRPD spectrum. This analysis was performed at batch release, and the XRPD spectrum obtained corresponded to that of the reference standard of Form IV (FIG. 2). […]

O=C(NOC[C@H](O)CO)c1ccc(F)c(F)c1Nc1ccc(I)cc1F [Form IV, N—((R)-2,3-dihydroxypropoxy)-3,4-difluoro-2-(2-fluoro-4-iodo-phenylamino)-benzamide]
Changes in the XRPD spectrum over time (stability of Form IV) (XRPD at 68 months (FIG. 3A)): Undetectable changes
Changes in the XRPD spectrum over time (stability of Form IV) (XRPD at 140 months (FIG. 3B)): Undetectable changes
